Reference: ChEMBL document CHEMBL4334493, “14- and 15-membered lactone macrolides and their analogues and hybrids: structure, molecular mechanism of action and biological activity” (Eur J Med Chem, 2019)
In brackets after ≈: the same amount, converted by molar mass.

Legend:
Streptococcus pneumoniae [1] = experiment: Antibacterial activity against Streptococcus pneumoniae ATCC 49619; format: functional
Escherichia coli [2] = experiment: Antibacterial activity against Escherichia coli DK pKK 3535; format: functional
Escherichia coli [3] = experiment: Antibacterial activity against Escherichia coli DK A2058G; format: functional
Streptococcus pneumoniae [4] = experiment: Antibacterial activity against Streptococcus pneumoniae 655 mefA; format: functional
Pasteurella multocida = experiment: Antibacterial activity against Pasteurella multocida IATCC 11039 after 24 hrs by broth microdilution method; format: functional; conditions: IATCC 11039, 24 h
Staphylococcus aureus [5] = experiment: Antibacterial activity against Staphylococcus aureus ATCC 25923 after 24 hrs by broth microdilution method; format: functional; conditions: ATCC 25923, 24 h
Staphylococcus aureus [6] = experiment: Antibacterial activity against Staphylococcus aureus 10 after 24 hrs by broth microdilution method; format: functional; conditions: Staphylococcus aureus, 10, 24 h
[7] = test system: Staphylococcus epidermidis; experiment: Antibacterial activity against Staphylococcus epidermidis ATCC 12228 after 24 hrs by broth microdilution method; format: functional; conditions: ATCC 12228, 24 h
Streptococcus pneumoniae [8] = experiment: Antibacterial activity against Streptococcus pneumoniae ATCC 49619 after 24 hrs by broth microdilution method; format: functional; conditions: ATCC 49619, 24 h
Enterococcus faecium [9] = experiment: Antibacterial activity against Enterococcus faecium 568 after 24 hrs by broth microdilution method; format: functional; conditions: Enterococcus faecium, 568, 24 h
Enterococcus faecium [10] = experiment: Antibacterial activity against Enterococcus faecium 569 after 24 hrs by broth microdilution method; format: functional; conditions: Enterococcus faecium, 569, 24 h
Cutibacterium acnes = experiment: Antibacterial activity against Propionibacterium acnes ATCC 6919 after 24 hrs by broth microdilution method; format: functional; conditions: ATCC 6919, 24 h
Escherichia coli [11] = experiment: Antibacterial activity against Escherichia coli ECM1888 after 24 hrs by broth microdilution method; format: functional; conditions: ECM1888, 24 h
Escherichia coli [12] = experiment: Antibacterial activity against Escherichia coli leuS ANA395 after 24 hrs by broth microdilution method; format: functional; conditions: leuS ANA395, 24 h
Mannheimia haemolytica = experiment: Antibacterial activity against Mannheimia haemolytica IATCC 33396 after 24 hrs by broth microdilution method; format: functional; conditions: IATCC 33396, 24 h
Histophilus somni = experiment: Antibacterial activity against Histophilus somni ATCC 700025 after 24 hrs by broth microdilution method; format: functional; conditions: ATCC 700025, 24 h
Streptococcus pyogenes = experiment: Antibacterial activity against Streptococcus pyogenes ATCC 19615 after 24 hrs by broth microdilution method; format: functional; conditions: ATCC 19615, 24 h
Staphylococcus aureus [13] = experiment: Antibacterial activity against methicillin/erythromycin susceptible Staphylococcus aureus by broth microdilution method; format: functional
Staphylococcus aureus [14] = experiment: Antibacterial activity against methicillin susceptible and erythromycin resistant Staphylococcus aureus by broth microdilution method; format: functional
Staphylococcus aureus [15] = experiment: Antibacterial activity against methicillin resistant Staphylococcus aureus by broth microdilution method; format: functional
[16] = test system: Staphylococcus epidermidis; experiment: Antibacterial activity against methicillin resistant Staphylococcus epidermidis by broth microdilution method; format: functional
[17] = test system: Staphylococcus epidermidis; experiment: Antibacterial activity against methicillin susceptible Staphylococcus epidermidis by broth microdilution method; format: functional
Enterococcus faecalis [18] = experiment: Antibacterial activity against Enterococcus faecalis by broth microdilution method; format: functional
Streptococcus pneumoniae [19] = experiment: Antibacterial activity against Streptococcus pneumoniae by broth microdilution method; format: functional
Haemophilus influenzae [20] = experiment: Antibacterial activity against Haemophilus influenzae by broth microdilution method; format: functional
[21] = test system: Staphylococcus haemolyticus; experiment: Antibacterial activity against Staphylococcus haemolyticus by broth microdilution method; format: functional
Staphylococcus aureus [22] = experiment: Antibacterial activity against Staphylococcus aureus ATCC 25923 by NCCLS protocol based broth microdilution method; format: functional
[23] = test system: Staphylococcus epidermidis; experiment: Antibacterial activity against Staphylococcus epidermidis ATCC 12228 by NCCLS protocol based broth microdilution method; format: functional
Streptococcus pneumoniae [24] = experiment: Antibacterial activity against Streptococcus pneumoniae 49619 by NCCLS protocol based broth microdilution method; format: functional
Enterococcus faecalis [25] = experiment: Antibacterial activity against Enterococcus faecalis ATCC 29212 by NCCLS protocol based broth microdilution method; format: functional
Escherichia coli [26] = experiment: Antibacterial activity against Escherichia coli ATCC 25922 by NCCLS protocol based broth microdilution method; format: functional
Klebsiella pneumoniae = experiment: Antibacterial activity against Klebsiella pneumoniae 13883 by NCCLS protocol based broth microdilution method; format: functional
[27] = Antibacterial activity against Salmonella choleraesuis 14028 by NCCLS protocol based broth microdilution method; format: functional, Salmonella enterica subsp. enterica serovar Choleraesuis; conditions: Salmonella enterica
Pseudomonas aeruginosa = experiment: Antibacterial activity against Pseudomonas aeruginosa 27853 by NCCLS protocol based broth microdilution method; format: functional
Haemophilus influenzae [28] = experiment: Antibacterial activity against Haemophilus influenzae 33929; format: functional
Haemophilus influenzae [29] = experiment: Antibacterial activity against Haemophilus influenzae 49247; format: functional
Staphylococcus aureus [30] = experiment: Antibacterial activity against methicillin resistant Staphylococcus aureus 33591; format: functional
Staphylococcus aureus [31] = experiment: Antibacterial activity against methicillin resistant Staphylococcus aureus 7662; format: functional

Question: Which MIC (Streptococcus pneumoniae [1]) does the source give for `CC[C@H]1OC(=O)[C@@](C)(F)C(=O)[C@H](C)[C@@H](O[C@@H]2O[C@H](C)C[C@H](N(C)C)[C@H]2O)[C@](C)(OC)C[C@@H](C)C(=O)[C@H](C)[C@H]2N(CCCCn3nncc3-c3cccs3)C(=O)O[C@]12C` here?
Answer: 1 µg/mL (≈ 1.2 µM)

Question: And the MIC (Escherichia coli [2])?
Answer: 1 µg/mL (≈ 1.2 µM)

Question: What about the MIC (Escherichia coli [3]) of the same compound?
Answer: 0.004 µg/mL (≈ 0.00478 µM)

Question: What about the MIC (Streptococcus pneumoniae [4]) of the same compound?
Answer: 0.5 µg/mL (≈ 0.598 µM)

Question: Which MIC (Pasteurella multocida) does the source give for `CC[C@H]1OC(=O)[C@H](C)[C@@H](O[C@H]2C[C@@](C)(OC)[C@@H](OC(=O)NCCCNC(=O)CCc3cccc4c3B(O)OC4)[C@H](C)O2)[C@H](C)[C@@H](O[C@@H]2O[C@H](C)C[C@H](N(C)C)[C@H]2O)[C@](C)(O)C[C@@H](C)CN(C)[C@H](C)[C@H]2OC(=O)O[C@@]21C` here?
Answer: 4 µg/mL (≈ 3.76 µM)

Question: What about the MIC (Staphylococcus aureus [5]) of the same compound?
Answer: 4 µg/mL (≈ 3.76 µM)

Question: And the MIC (Staphylococcus aureus [6])?
Answer: 0.5 µg/mL (≈ 0.47 µM)

Question: And the MIC [7]?
Answer: 8 µg/mL (≈ 7.53 µM)

Question: What about the MIC (Streptococcus pneumoniae [8]) of the same compound?
Answer: 0.13 µg/mL (≈ 0.122 µM)

Question: What about the MIC (Enterococcus faecium [9]) of the same compound?
Answer: 0.13 µg/mL (≈ 0.122 µM)

Question: And the MIC (Enterococcus faecium [10])?
Answer: 2 µg/mL (≈ 1.88 µM)

Question: What about the MIC (Cutibacterium acnes) of the same compound?
Answer: ≤ 0.12 µg/mL

Question: What about the MIC (Escherichia coli [11]) of the same compound?
Answer: 8 µg/mL (≈ 7.53 µM)

Question: And the MIC (Escherichia coli [12])?
Answer: 8 µg/mL (≈ 7.53 µM)

Question: What about the MIC (Mannheimia haemolytica) of the same compound?
Answer: 8 µg/mL (≈ 7.53 µM)

Question: What about the MIC (Histophilus somni) of the same compound?
Answer: 4 µg/mL (≈ 3.76 µM)

Question: And the MIC (Streptococcus pyogenes)?
Answer: 0.25 µg/mL (≈ 0.235 µM)

Question: For `CC[C@H]1OC(=O)[C@H](C)C(=O)[C@H](C)[C@@H](O[C@@H]2O[C@H](C)C[C@H](N(C)C)[C@H]2O)[C@](C)(OC)C[C@@H](C)C(=O)[C@H](C)[C@H]2N(CCCOC(=O)Nc3cccc(C)c3)C(=O)O[C@]12C`, which MIC50 (Staphylococcus aureus [13]) is on record?
Answer: 0.125 µg/mL (≈ 0.155 µM)

Question: And the MIC50 (Staphylococcus aureus [14])?
Answer: 0.25 µg/mL (≈ 0.311 µM)

Question: What about the MIC50 (Staphylococcus aureus [15]) of the same compound?
Answer: 128 to 256 µg/mL (≈ 159 to 318 µM)

Question: What about the MIC50 [16] of the same compound?
Answer: 1 to 128 µg/mL (≈ 1.24 to 159 µM)

Question: What about the MIC50 [17] of the same compound?
Answer: 0.031 µg/mL (≈ 0.0386 µM)

Question: What about the MIC50 (Enterococcus faecalis [18]) of the same compound?
Answer: > 256 µg/mL

Question: And the MIC50 (Streptococcus pneumoniae [19])?
Answer: 0.062 to 0.125 µg/mL (≈ 0.0771 to 0.155 µM)

Question: What about the MIC50 (Haemophilus influenzae [20]) of the same compound?
Answer: 4 to 8 µg/mL (≈ 4.98 to 9.95 µM)

Question: What about the MIC50 [21] of the same compound?
Answer: 1 to 2 µg/mL (≈ 1.24 to 2.49 µM)

Question: Which MIC (Staphylococcus aureus [22]) does the source give for `CC[C@H]1OC(=O)[C@H](C)[C@@H](O[C@H]2C[C@@](C)(OC)[C@@H](OC(=O)NC[C@H]3OB(O)c4ccccc43)[C@H](C)O2)[C@H](C)[C@@H](O[C@@H]2O[C@H](C)C[C@H](N(C)C)[C@H]2O)[C@](C)(OC)C[C@@H](C)C(=O)[C@H](C)[C@@H](O)[C@]1(C)O` here?
Answer: 2 µg/mL (≈ 2.13 µM)

Question: What about the MIC [23] of the same compound?
Answer: 0.5 µg/mL (≈ 0.534 µM)

Question: And the MIC (Streptococcus pneumoniae [24])?
Answer: 0.5 µg/mL (≈ 0.534 µM)

Question: What about the MIC (Enterococcus faecalis [25]) of the same compound?
Answer: 4 µg/mL (≈ 4.27 µM)

Question: And the MIC (Escherichia coli [26])?
Answer: > 64 µg/mL

Question: What about the MIC (Klebsiella pneumoniae) of the same compound?
Answer: > 64 µg/mL

Question: What about the MIC [27] of the same compound?
Answer: > 64 µg/mL

Question: What about the MIC (Pseudomonas aeruginosa) of the same compound?
Answer: > 64 µg/mL

Question: Which MIC (Haemophilus influenzae [28]) does the source give for `CC[C@H]1OC(=O)[C@H](C)C(=O)[C@H](C)[C@@H](O[C@@H]2O[C@H](C)C[C@H](N(C)C)[C@H]2O)[C@@]2(C)C[C@@H](C)/C(=N\C(C)=O)[C@H](C)[C@@H](OC/C(=N\OCc3ccc(-c4ccno4)cn3)CO2)[C@]1(C)O` here?
Answer: 4 µg/mL (≈ 4.75 µM)

Question: And the MIC (Haemophilus influenzae [29])?
Answer: 4 µg/mL (≈ 4.75 µM)

Question: Which MIC (Staphylococcus aureus [30]) does the source give for `CCC(=O)/N=C1\[C@H](C)C[C@@]2(C)OC/C(=N/OCc3csc(-c4cccc(N)n4)n3)CO[C@H]([C@H]1C)[C@](C)(O)[C@@H](CC)OC(=O)[C@@](C)(F)C(=O)[C@H](C)[C@H]2O[C@@H]1O[C@H](C)C[C@H](N(C)C)[C@H]1O` here?
Answer: 2 µg/mL (≈ 2.21 µM)

Question: What about the MIC (Staphylococcus aureus [31]) of the same compound?
Answer: 1 µg/mL (≈ 1.1 µM)

Question: What about the MIC (Haemophilus influenzae [28]) of the same compound?
Answer: 4 µg/mL (≈ 4.42 µM)

Question: What about the MIC (Haemophilus influenzae [29]) of the same compound?
Answer: 1 µg/mL (≈ 1.1 µM)
